# Test system: 777334-354-R2-J4-PDC tumor spheroids with HUVEC/MSC, viability
# Assay: Anticancer human tumor 777334-354-R2-J4-PDC patient-derived pancreatic adenocarcinoma cell line growth inhibition [GQUAD]
# Details: for IC50: curve of first compound; for viability, T/C: stronger effect = lower value
# Method in brief: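 Tumor cells were grown as complex spheroids with HUVEC endothelial cells and mesenchymal stem cells as stroma. G-quadruplex stabilizers were combined with targeted agents over half-log dilutions from near the clinical Cmax, or from 10 microM.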
# [1] = second compound 0.0316 µM, first compound 0.0316 µM
# [2] = second compound 0.0316 µM, first compound 0.1 µM
# [3] = second compound 0.0316 µM, first compound 0.316 µM
# [4] = second compound 0.0316 µM, first compound 1 µM
# [5] = second compound 0.0316 µM, first compound 3.16 µM
# [6] = second compound 0.0316 µM, first compound 10 µM
# [7] = second compound 0.1 µM, first compound 0.0316 µM
# [8] = second compound 0.1 µM, first compound 0.1 µM
# [9] = second compound 0.1 µM, first compound 0.316 µM
# [10] = second compound 0.1 µM, first compound 1 µM
# [11] = second compound 0.1 µM, first compound 3.16 µM
# [12] = second compound 0.1 µM, first compound 10 µM
# [13] = second compound 0.316 µM, first compound 0.0316 µM
# [14] = second compound 0.316 µM, first compound 0.1 µM
# [15] = second compound 0.316 µM, first compound 0.316 µM
# [16] = second compound 0.316 µM, first compound 1 µM
# [17] = second compound 0.316 µM, first compound 3.16 µM
# [18] = second compound 0.316 µM, first compound 10 µM
# [19] = second compound 1 µM, first compound 0.0316 µM
# [20] = second compound 1 µM, first compound 0.1 µM
# [21] = second compound 1 µM, first compound 0.316 µM
# [22] = second compound 1 µM, first compound 1 µM
# [23] = second compound 1 µM, first compound 3.16 µM
# [24] = second compound 1 µM, first compound 10 µM
# [25] = second compound 3.16 µM, first compound 0.0316 µM
# [26] = second compound 3.16 µM, first compound 0.1 µM
# [27] = second compound 3.16 µM, first compound 0.316 µM
# [28] = second compound 3.16 µM, first compound 1 µM
# [29] = second compound 3.16 µM, first compound 3.16 µM
# [30] = second compound 3.16 µM, first compound 10 µM
# [31] = second compound 10 µM, first compound 0.0316 µM
# [32] = second compound 10 µM, first compound 0.1 µM
# [33] = second compound 10 µM, first compound 0.316 µM
# [34] = second compound 10 µM, first compound 1 µM
# [35] = second compound 10 µM, first compound 3.16 µM
# [36] = second compound 10 µM, first compound 10 µM
# 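Also: spheroids exposed to compounds for 7 days before readout.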
smiles,measurement,setting,value
CC(=O)O[C@H]1C(=O)[C@@]2(C)[C@H]([C@H](OC(=O)c3ccccc3)[C@]3(O)C[C@H](OC(=O)[C@H](O)[C@@H](NC(=O)c4ccccc4)c4ccccc4)C(C)=C1C3(C)C)[C@]1(OC(C)=O)CO[C@@H]1C[C@@H]2O + Cc1[nH]c2ccc(F)cc2c1-c1nc2c3cccnc3c3ncccc3c2[nH]1,IC50,second compound 0.0316 µM,291 nM
same,IC50,second compound 0.1 µM,305 nM
same,IC50,second compound 0.316 µM,222 nM
same,IC50,second compound 1 µM,240 nM
same,IC50,second compound 3.16 µM,< 31.6 nM
same,IC50,second compound 10 µM,< 31.6 nM
same,"viability, T/C",[1],97.1%
same,"viability, T/C",[2],66%
same,"viability, T/C",[3],49.7%
same,"viability, T/C",[4],41.1%
same,"viability, T/C",[5],51.8%
same,"viability, T/C",[6],43.3%
same,"viability, T/C",[7],94.9%
same,"viability, T/C",[8],59.9%
same,"viability, T/C",[9],48.4%
same,"viability, T/C",[10],46.4%
same,"viability, T/C",[11],49.6%
same,"viability, T/C",[12],47.6%
same,"viability, T/C",[13],81.4%
same,"viability, T/C",[14],59.5%
same,"viability, T/C",[15],45.6%
same,"viability, T/C",[16],45.2%
same,"viability, T/C",[17],47.5%
same,"viability, T/C",[18],44.1%
same,"viability, T/C",[19],70.9%
same,"viability, T/C",[20],58.5%
same,"viability, T/C",[21],44.2%
same,"viability, T/C",[22],45.3%
same,"viability, T/C",[23],44.6%
same,"viability, T/C",[24],38.1%
same,"viability, T/C",[25],35.9%
same,"viability, T/C",[26],28%
same,"viability, T/C",[27],22.2%
same,"viability, T/C",[28],17.4%
same,"viability, T/C",[29],17.8%
same,"viability, T/C",[30],15%
same,"viability, T/C",[31],30.7%
same,"viability, T/C",[32],23%
same,"viability, T/C",[33],19.6%
same,"viability, T/C",[34],14%
same,"viability, T/C",[35],15.3%
same,"viability, T/C",[36],15.7%
C#Cc1c(F)ccc2cc(O)cc(-c3ncc4c(N5CC6CCC(C5)N6)nc(OCC56CCCN5CC(F)C6)nc4c3F)c12 (stereo unspecified) + Cc1cnc(CNC(=O)c2c(=O)c3ccc(N4CCCN(C)CC4)nc3n3c2sc2ccccc23)cn1,IC50,second compound 0.0316 µM,< 31.6 nM
same,IC50,second compound 0.1 µM,< 31.6 nM
same,IC50,second compound 0.316 µM,< 31.6 nM
same,IC50,second compound 1 µM,< 31.6 nM
same,IC50,second compound 3.16 µM,< 31.6 nM
same,IC50,second compound 10 µM,< 31.6 nM
same,"viability, T/C",[1],49.7%
same,"viability, T/C",[2],38.7%
same,"viability, T/C",[3],31.4%
same,"viability, T/C",[4],31.6%
same,"viability, T/C",[5],27.1%
same,"viability, T/C",[6],24.2%
same,"viability, T/C",[7],45.1%
same,"viability, T/C",[8],34.4%
same,"viability, T/C",[9],30.9%
same,"viability, T/C",[10],26.4%
same,"viability, T/C",[11],23.5%
same,"viability, T/C",[12],21.3%
same,"viability, T/C",[13],39.6%
same,"viability, T/C",[14],33.8%
same,"viability, T/C",[15],28.8%
same,"viability, T/C",[16],25.6%
same,"viability, T/C",[17],22.6%
same,"viability, T/C",[18],19.9%
same,"viability, T/C",[19],36.2%
same,"viability, T/C",[20],29.4%
same,"viability, T/C",[21],31.1%
same,"viability, T/C",[22],23.6%
same,"viability, T/C",[23],21.9%
same,"viability, T/C",[24],19.4%
same,"viability, T/C",[25],28%
same,"viability, T/C",[26],25.5%
same,"viability, T/C",[27],22.8%
same,"viability, T/C",[28],19.2%
same,"viability, T/C",[29],17.5%
same,"viability, T/C",[30],14.4%
same,"viability, T/C",[31],22%
same,"viability, T/C",[32],16.7%
same,"viability, T/C",[33],15%
same,"viability, T/C",[34],8.71%
same,"viability, T/C",[35],8.87%
same,"viability, T/C",[36],3.17%
O=c1[nH]cc(F)c(=O)[nH]1 + CN(C)c1ccc(Nc2c3ccc(NC(=O)CCN4CCCC4)cc3nc3cc(NC(=O)CCN4CCCC4)ccc23)cc1,IC50,second compound 0.0316 µM,> 10000 nM
same,IC50,second compound 0.1 µM,> 10000 nM
same,IC50,second compound 0.316 µM,> 10000 nM
same,IC50,second compound 1 µM,> 10000 nM
same,IC50,second compound 3.16 µM,> 10000 nM
same,IC50,second compound 10 µM,8210 nM
same,"viability, T/C",[1],91.7%
same,"viability, T/C",[2],92%
same,"viability, T/C",[3],99.9%
same,"viability, T/C",[4],84.2%
same,"viability, T/C",[5],66.7%
same,"viability, T/C",[6],55.3%
same,"viability, T/C",[7],96.8%
same,"viability, T/C",[8],96.8%
same,"viability, T/C",[9],92.3%
same,"viability, T/C",[10],90.7%
same,"viability, T/C",[11],80.3%
same,"viability, T/C",[12],60%
same,"viability, T/C",[13],92.6%
same,"viability, T/C",[14],91%
same,"viability, T/C",[15],96.3%
same,"viability, T/C",[16],87.1%
same,"viability, T/C",[17],72.4%
same,"viability, T/C",[18],54.7%
same,"viability, T/C",[19],99.3%
same,"viability, T/C",[20],88.5%
same,"viability, T/C",[21],82.8%
same,"viability, T/C",[22],70.6%
same,"viability, T/C",[23],65.9%
same,"viability, T/C",[24],55%
same,"viability, T/C",[25],93.2%
same,"viability, T/C",[26],81.6%
same,"viability, T/C",[27],79.2%
same,"viability, T/C",[28],77.8%
same,"viability, T/C",[29],71.1%
same,"viability, T/C",[30],54.2%
same,"viability, T/C",[31],76.6%
same,"viability, T/C",[32],79.1%
same,"viability, T/C",[33],76.8%
same,"viability, T/C",[34],71.4%
same,"viability, T/C",[35],60.9%
same,"viability, T/C",[36],47.7%
